# ChEMBL document CHEMBL3046079, “Synthesis, herbicidal activity, and mode of action of IR 5790” (J Agric Food Chem, 2001)
# Key:
# Abutilon theophrasti [1] = assay: Pre-emergence herbicidal activity against Abutilon theophrasti (velvetleaf) assessed as injury at 50 g/ha applied at 24 hr post-sowing measured after 28 days relative to control; format: functional
# Veronica persica [2] = assay: Post-emergence herbicidal activity against Veronica persica assessed as injury at 150 g/ha applied at 15 days post-sowing measured after 15 days relative to control; format: functional
# Avena fatua [3] = assay: Post-emergence herbicidal activity against Avena fatua assessed as injury at 150 g/ha applied at 15 days post-sowing measured after 15 days relative to control; format: functional
# Avena fatua [4] = assay: Post-emergence herbicidal activity against Avena fatua assessed as injury at 50 g/ha applied at 15 days post-sowing measured after 15 days relative to control; format: functional
# Portulaca oleracea [5] = assay: Post-emergence herbicidal activity against Portulaca oleracea assessed as injury at 150 g/ha applied at 15 days post-sowing measured after 15 days relative to control; format: functional
# Galium aparine [6] = assay: Pre-emergence herbicidal activity against Galium aparine assessed as injury at 50 g/ha applied at 24 hr post-sowing measured after 28 days relative to control; format: functional
# Stellaria media = assay: Pre-emergence herbicidal activity against Stellaria media assessed as injury at 50 g/ha applied at 24 hr post-sowing measured after 28 days relative to control; format: functional
# Panicum dichotomiflorum [7] = assay: Pre-emergence herbicidal activity against Panicum dichotomiflorum assessed as injury at 50 g/ha applied at 24 hr post-sowing measured after 28 days relative to control; format: functional
# Sorghum bicolor = assay: Pre-emergence herbicidal activity against Sorghum bicolor assessed as injury at 50 g/ha applied at 24 hr post-sowing measured after 28 days relative to control; format: functional
# Papaver rhoeas = assay: Post-emergence herbicidal activity against Papaver rhoeas assessed as injury at 50 g/ha applied at 15 days post-sowing measured after 15 days relative to control; format: functional
# Digitaria sanguinalis = assay: Pre-emergence herbicidal activity against Digitaria sanguinalis (hairy crabgrass) assessed as injury at 50 g/ha applied at 24 hr post-sowing measured after 28 days relative to control; format: functional
# Abutilon theophrasti [8] = assay: Post-emergence herbicidal activity against Abutilon theophrasti (velvetleaf) assessed as injury at 50 g/ha applied at 15 days post-sowing measured after 15 days relative to control; format: functional
# Persicaria maculosa [9] = assay: Post-emergence herbicidal activity against Persicaria maculosa assessed as injury at 150 g/ha applied at 15 days post-sowing measured after 15 days relative to control; format: functional
# Portulaca oleracea [10] = assay: Post-emergence herbicidal activity against Portulaca oleracea assessed as injury at 15 g/ha applied at 15 days post-sowing measured after 15 days relative to control; format: functional
# Gossypium hirsutum = assay: Phytotoxicity against Gossypium hirsutum (cotton) assessed as injury at 150 g/ha applied as post-emergent treatment at 15 days post-sowing measured after 15 days relative to control; format: organism-based; settings: in vivo, other, 360 h
# Galium aparine [11] = assay: Pre-emergence herbicidal activity against Galium aparine assessed as injury at 150 g/ha applied at 24 hr post-sowing measured after 28 days relative to control; format: functional
# Amaranthus retroflexus = assay: Pre-emergence herbicidal activity against Amaranthus retroflexus assessed as injury at 150 g/ha applied at 24 hr post-sowing measured after 28 days relative to control; format: functional
# Ipomoea purpurea [12] = assay: Pre-emergence herbicidal activity against Ipomoea purpurea (common morning-glory) assessed as injury at 150 g/ha applied at 24 hr post-sowing measured after 28 days relative to control; format: functional
# Geranium dissectum = assay: Post-emergence herbicidal activity against Geranium dissectum assessed as injury at 150 g/ha applied at 15 days post-sowing measured after 15 days relative to control; format: functional
# Calystegia sepium = assay: Post-emergence herbicidal activity against Calystegia sepium assessed as injury at 50 g/ha applied at 15 days post-sowing measured after 15 days relative to control; format: functional
# Panicum dichotomiflorum [13] = assay: Post-emergence herbicidal activity against Panicum dichotomiflorum assessed as injury at 150 g/ha applied at 15 days post-sowing measured after 15 days relative to control; format: functional
# Triticum aestivum [14] = assay: Phytotoxicity against Triticum aestivum (wheat) assessed as injury at 150 g/ha applied as post-emergent treatment at 15 days post-sowing measured after 15 days relative to control; format: organism-based; settings: in vivo, other, 360 h
# Echinochloa crus-galli [15] = assay: Post-emergence herbicidal activity against Echinochloa crus-galli (barnyard grass) assessed as injury at 15 g/ha applied at 15 days post-sowing measured after 15 days relative to control; format: functional
# [16] = Solubility of the compound in organis solvent; format: physicochemical
# Xanthium strumarium = assay: Post-emergence herbicidal activity against Xanthium strumarium (cocklebur) assessed as injury at 50 g/ha applied at 15 days post-sowing measured after 15 days relative to control; format: functional
# Zea mays = assay: Phytotoxicity against Zea mays (maize) assessed as injury at 50 g/ha applied as post-emergent treatment at 15 days post-sowing measured after 15 days relative to control; format: organism-based; settings: in vivo, other, 360 h
# Panicum dichotomiflorum [17] = assay: Pre-emergence herbicidal activity against Panicum dichotomiflorum assessed as injury at 150 g/ha applied at 24 hr post-sowing measured after 28 days relative to control; format: functional
# Veronica persica [18] = assay: Post-emergence herbicidal activity against Veronica persica assessed as injury at 50 g/ha applied at 15 days post-sowing measured after 15 days relative to control; format: functional
# Persicaria maculosa [19] = assay: Post-emergence herbicidal activity against Persicaria maculosa assessed as injury at 50 g/ha applied at 15 days post-sowing measured after 15 days relative to control; format: functional
# Alopecurus myosuroides = assay: Post-emergence herbicidal activity against Alopecurus myosuroides assessed as injury at 5 g/ha applied at 15 days post-sowing measured after 15 days relative to control; format: functional
# Ipomoea purpurea [20] = assay: Post-emergence herbicidal activity against Ipomoea purpurea (common morning-glory) assessed as injury at 15 g/ha applied at 15 days post-sowing measured after 15 days relative to control; format: functional
# Triticum aestivum [21] = assay: Phytotoxicity against Triticum aestivum (wheat) assessed as injury at 5 g/ha applied as post-emergent treatment at 15 days post-sowing measured after 15 days relative to control; format: organism-based; settings: in vivo, other, 360 h
# Ipomoea purpurea [22] = assay: Pre-emergence herbicidal activity against Ipomoea purpurea (common morning-glory) assessed as injury at 50 g/ha applied at 24 hr post-sowing measured after 28 days relative to control; format: functional
# Avena fatua [23] = assay: Pre-emergence herbicidal activity against Avena fatua assessed as injury at 150 g/ha applied at 24 hr post-sowing measured after 28 days relative to control; format: functional
# Persicaria maculosa [24] = assay: Post-emergence herbicidal activity against Persicaria maculosa assessed as injury at 15 g/ha applied at 15 days post-sowing measured after 15 days relative to control; format: functional
# [25] = Toxicity in po dosed Rattus norvegicus (rat); format: organism-based; settings: in vivo
# Phalaris arundinacea = assay: Pre-emergence herbicidal activity against Phalaris arundinacea assessed as injury at 50 g/ha applied at 24 hr post-sowing measured after 28 days relative to control; format: functional
# Chenopodium album = assay: Post-emergence herbicidal activity against Chenopodium album assessed as injury at 150 g/ha applied at 15 days post-sowing measured after 15 days relative to control; format: functional
# Echinochloa crus-galli [26] = assay: Post-emergence herbicidal activity against Echinochloa crus-galli (barnyard grass) assessed as injury at 150 g/ha applied at 15 days post-sowing measured after 15 days relative to control; format: functional
structure (smiles),measurement,setting,value
C#CCOc1cc(-n2nc(C(C)(C)C)sc2=O)c(Cl)cc1Cl,Activity,Abutilon theophrasti [1],0%
same,Activity,Veronica persica [2],50%
same,Activity,Avena fatua [3],30%
same,Activity,Avena fatua [4],0%
same,Activity,Portulaca oleracea [5],90%
same,Activity,Galium aparine [6],0%
same,Activity,Stellaria media,0%
same,Activity,Panicum dichotomiflorum [7],90%
same,Activity,Sorghum bicolor,0%
same,Activity,Papaver rhoeas,0%
same,Activity,Digitaria sanguinalis,70%
same,Activity,Abutilon theophrasti [8],70%
same,Activity,Persicaria maculosa [9],90%
same,Activity,Portulaca oleracea [10],70%
same,Activity,Gossypium hirsutum,70%
same,Activity,Galium aparine [11],0%
same,Activity,Amaranthus retroflexus,90%
same,Activity,Ipomoea purpurea [12],0%
same,Activity,Geranium dissectum,50%
same,Activity,Calystegia sepium,70%
same,Activity,Panicum dichotomiflorum [13],90%
same,Activity,Triticum aestivum [14],50%
same,Activity,Echinochloa crus-galli [15],0%
same,solubility,[16],> 250 mg/mL
same,Activity,Xanthium strumarium,10%
same,Activity,Zea mays,0%
same,Activity,Panicum dichotomiflorum [17],90%
same,Activity,Veronica persica [18],0%
same,Activity,Persicaria maculosa [19],90%
same,Activity,Alopecurus myosuroides,0%
same,Activity,Ipomoea purpurea [20],90%
same,Activity,Triticum aestivum [21],0%
same,Activity,Ipomoea purpurea [22],0%
same,Activity,Avena fatua [23],0%
same,Activity,Persicaria maculosa [24],70%
same,LD50,[25],> 4000 mg/kg
same,Activity,Phalaris arundinacea,0%
same,Activity,Chenopodium album,90%
same,Activity,Echinochloa crus-galli [26],10%
